Usually Ki stands for the equilibrium dissociation constant of an inhibitor or competing ligand from its target. In general, EC50 refers to the concentration giving half of the maximal effect. A word on the Emax: it is the size of the effect at its maximum, as opposed to the concentration needed.

The target of the first series is T1, Mu-type opioid receptor (Homo sapiens, UniProt P35372). As to the kind of experiment: Displacement of [3H]-DAMGO from recombinant human MOR expressed in CHO cell membranes measured after 2 hrs by microbeta scintillation counting method. Set-up: species or system Membrane.
T1 sequence (P35372 whole entry): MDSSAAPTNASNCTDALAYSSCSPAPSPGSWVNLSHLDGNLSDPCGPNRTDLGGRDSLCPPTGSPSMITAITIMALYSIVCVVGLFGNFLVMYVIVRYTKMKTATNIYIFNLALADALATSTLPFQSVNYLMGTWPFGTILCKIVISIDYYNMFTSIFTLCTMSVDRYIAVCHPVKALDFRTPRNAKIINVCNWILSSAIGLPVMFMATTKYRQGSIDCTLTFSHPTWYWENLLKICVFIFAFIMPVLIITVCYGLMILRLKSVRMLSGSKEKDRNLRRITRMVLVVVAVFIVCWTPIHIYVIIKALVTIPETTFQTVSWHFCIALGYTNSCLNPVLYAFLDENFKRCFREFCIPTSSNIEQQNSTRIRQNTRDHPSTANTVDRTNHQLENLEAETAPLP
Conditions: not given
Background: In a radioligand displacement assay an active substance lowers the binding of a labelled ligand.
On to `CN(C(=O)CCc1ccccc1)[C@@H]1C[C@]23CCN(CC4CC4)[C@H](Cc4ccc(O)cc42)[C@]32CC[C@@H]1O2`, for which the Ki was determined as 1.46 nM.

On to `O=C(N[C@@H]1C[C@]23CCN(CC4CC4)[C@H](Cc4ccc(O)cc42)[C@]32CC[C@@H]1O2)c1ccccc1`, for which the inhibitory constant (Ki) worked out at 0.165 nM.

Turning to `CN(C(=O)c1ccccc1)[C@@H]1C[C@]23CCN(CC4CC4)[C@H](Cc4ccc(O)cc42)[C@]32CC[C@@H]1O2`, the Ki came out at 1.42 nM.

Take `O=C(N[C@H]1C[C@]23CCN(CC4CC4)[C@H](Cc4ccc(O)cc42)[C@]32CC[C@@H]1O2)c1ccccc1`: the inhibitory constant (Ki) worked out at 0.564 nM.

The target in the next series is T2, Delta-type opioid receptor (Homo sapiens, UniProt P41143). As to the kind of experiment: Displacement of [3H]-DPDPE from recombinant human DOR expressed in CHO cell membranes measured after 2 hrs by microbeta scintillation counting method. Further details: species or system Membrane.
T2 sequence (P41143 whole entry): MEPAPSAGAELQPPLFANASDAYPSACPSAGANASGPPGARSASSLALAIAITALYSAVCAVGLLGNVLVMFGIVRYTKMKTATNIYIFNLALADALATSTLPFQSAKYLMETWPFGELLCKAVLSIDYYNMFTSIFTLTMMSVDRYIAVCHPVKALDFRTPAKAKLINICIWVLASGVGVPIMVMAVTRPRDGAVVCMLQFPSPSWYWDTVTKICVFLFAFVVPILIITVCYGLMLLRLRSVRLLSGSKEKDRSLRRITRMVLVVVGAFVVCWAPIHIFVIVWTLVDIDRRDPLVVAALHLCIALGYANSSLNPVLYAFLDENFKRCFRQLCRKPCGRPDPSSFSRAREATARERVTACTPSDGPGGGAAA
Conditions: not given
`CN(C(=O)CCc1ccccc1)[C@@H]1C[C@]23CCN(CC4CC4)[C@H](Cc4ccc(O)cc42)[C@]32CC[C@@H]1O2`: the Ki was determined as 20.5 nM.

Regarding `O=C(N[C@@H]1C[C@]23CCN(CC4CC4)[C@H](Cc4ccc(O)cc42)[C@]32CC[C@@H]1O2)c1ccccc1`, the Ki amounted to 1.67 nM.

Regarding `CN(C(=O)c1ccccc1)[C@@H]1C[C@]23CCN(CC4CC4)[C@H](Cc4ccc(O)cc42)[C@]32CC[C@@H]1O2`, the Ki came to 23.2 nM.

`O=C(N[C@H]1C[C@]23CCN(CC4CC4)[C@H](Cc4ccc(O)cc42)[C@]32CC[C@@H]1O2)c1ccccc1`: the Ki was 5.68 nM.

The target of another series is T3, Kappa-type opioid receptor (Homo sapiens, UniProt P41145). As to the kind of experiment: Displacement of [3H]-U-69593 from recombinant human KOR expressed in CHO cell membranes measured after 2 hrs by microbeta scintillation counting method.
T3 sequence (P41145 whole entry): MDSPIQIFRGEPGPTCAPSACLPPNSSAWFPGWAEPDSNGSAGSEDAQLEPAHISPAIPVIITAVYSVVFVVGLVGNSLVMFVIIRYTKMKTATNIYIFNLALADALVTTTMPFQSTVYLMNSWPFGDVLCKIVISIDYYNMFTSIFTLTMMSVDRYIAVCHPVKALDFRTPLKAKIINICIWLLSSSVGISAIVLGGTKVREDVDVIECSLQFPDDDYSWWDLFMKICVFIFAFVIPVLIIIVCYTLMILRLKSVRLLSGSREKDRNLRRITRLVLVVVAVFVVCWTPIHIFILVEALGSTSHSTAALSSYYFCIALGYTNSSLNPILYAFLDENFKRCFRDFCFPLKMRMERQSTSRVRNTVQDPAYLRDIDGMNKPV
Conditions: not given
Set-up: species or system Membrane.
For the compound `CN(C(=O)CCc1ccccc1)[C@@H]1C[C@]23CCN(CC4CC4)[C@H](Cc4ccc(O)cc42)[C@]32CC[C@@H]1O2`, the Ki is 0.332 nM.

Turning to `O=C(N[C@@H]1C[C@]23CCN(CC4CC4)[C@H](Cc4ccc(O)cc42)[C@]32CC[C@@H]1O2)c1ccccc1`, the Ki was determined as 0.14 nM.

Regarding `CN(C(=O)c1ccccc1)[C@@H]1C[C@]23CCN(CC4CC4)[C@H](Cc4ccc(O)cc42)[C@]32CC[C@@H]1O2`, the Ki is 0.256 nM.

Turning to `O=C(N[C@H]1C[C@]23CCN(CC4CC4)[C@H](Cc4ccc(O)cc42)[C@]32CC[C@@H]1O2)c1ccccc1`, the inhibition constant (Ki) amounted to 10.6 nM.

The species entered for the next series is Homo sapiens. As to the kind of experiment: Selectivity ratio of Ki for displacement of [3H]-DAMGO from recombinant human MOR expressed in CHO cell membranes to Ki for displacement of [3H]-U-69593 from recombinant human KOR expressed in CHO cell membranes.
Conditions: not given
Take `CN(C(=O)CCc1ccccc1)[C@@H]1C[C@]23CCN(CC4CC4)[C@H](Cc4ccc(O)cc42)[C@]32CC[C@@H]1O2`: the Ratio Ki was determined as 4.4.

Consider `O=C(N[C@@H]1C[C@]23CCN(CC4CC4)[C@H](Cc4ccc(O)cc42)[C@]32CC[C@@H]1O2)c1ccccc1`, for which the Ratio Ki was found to be 1.2.

Turning to `CN(C(=O)c1ccccc1)[C@@H]1C[C@]23CCN(CC4CC4)[C@H](Cc4ccc(O)cc42)[C@]32CC[C@@H]1O2`, the Ratio Ki turned out to be 5.5.

As for `O=C(N[C@H]1C[C@]23CCN(CC4CC4)[C@H](Cc4ccc(O)cc42)[C@]32CC[C@@H]1O2)c1ccccc1`, the Ratio Ki was 0.05.

The species named for the next series is Homo sapiens. As to the kind of experiment: Selectivity ratio of Ki for displacement of [3H]-DPDPE from recombinant human DOR expressed in CHO cell membranes to Ki for displacement of [3H]-U-69593 from recombinant human KOR expressed in CHO cell membranes.
Conditions: not given
Turning to `CN(C(=O)CCc1ccccc1)[C@@H]1C[C@]23CCN(CC4CC4)[C@H](Cc4ccc(O)cc42)[C@]32CC[C@@H]1O2`, the Ratio Ki was found to be 61.7.

Turning to `O=C(N[C@@H]1C[C@]23CCN(CC4CC4)[C@H](Cc4ccc(O)cc42)[C@]32CC[C@@H]1O2)c1ccccc1`, the Ratio Ki stood at 11.9.

With `CN(C(=O)c1ccccc1)[C@@H]1C[C@]23CCN(CC4CC4)[C@H](Cc4ccc(O)cc42)[C@]32CC[C@@H]1O2`, the Ratio Ki was 90.6.

Turning to `O=C(N[C@H]1C[C@]23CCN(CC4CC4)[C@H](Cc4ccc(O)cc42)[C@]32CC[C@@H]1O2)c1ccccc1`, the Ratio Ki is 0.54.

The next series deals with T1, Mu-type opioid receptor. Briefly: Agonist activity at human mu opioid receptor expressed in CHO cell membranes assessed as stimulation of [35S]GTPgammaS binding incubated for 2 hrs by scintillation counting method. Further details: species or system Membrane.
Conditions: not given
Take `CN(C(=O)CCc1ccccc1)[C@@H]1C[C@]23CCN(CC4CC4)[C@H](Cc4ccc(O)cc42)[C@]32CC[C@@H]1O2`: the EC50 amounted to 5.61 nM.

With `O=C(N[C@@H]1C[C@]23CCN(CC4CC4)[C@H](Cc4ccc(O)cc42)[C@]32CC[C@@H]1O2)c1ccccc1`, the EC50 came to 2.72 nM.

For the compound `CN(C(=O)c1ccccc1)[C@@H]1C[C@]23CCN(CC4CC4)[C@H](Cc4ccc(O)cc42)[C@]32CC[C@@H]1O2`, the EC50 came to 4.7 nM.

A further series deals with mu opioid receptor (MOR) (Homo sapiens, UniProt P35372). As to the kind of experiment: Agonist activity at human mu opioid receptor expressed in CHO cell membranes assessed as stimulation of [35S]GTPgammaS binding incubated for 2 hrs by scintillation counting method relative to DAMGO. Set-up: species or system Membrane. The note with it: CHO cell membranes expressing human mu opioid receptor, probe [35S]GTPgammaS. (Binding of GTPγS marks nucleotide exchange on a G protein.)
Chain of mu opioid receptor (MOR) (P35372 whole entry): as the sequence (P35372 whole entry) above
Turning to `CN(C(=O)CCc1ccccc1)[C@@H]1C[C@]23CCN(CC4CC4)[C@H](Cc4ccc(O)cc42)[C@]32CC[C@@H]1O2`, the Emax at 2 h came to 33.4%.

Take `O=C(N[C@@H]1C[C@]23CCN(CC4CC4)[C@H](Cc4ccc(O)cc42)[C@]32CC[C@@H]1O2)c1ccccc1`: the Emax at 2 h amounted to 47.2%.

On to `CN(C(=O)c1ccccc1)[C@@H]1C[C@]23CCN(CC4CC4)[C@H](Cc4ccc(O)cc42)[C@]32CC[C@@H]1O2`, for which the Emax at 2 h was found to be 47.5%.

Another series has as its target T2, Delta-type opioid receptor. As to the kind of experiment: Agonist activity at human delta opioid receptor expressed in CHO cell membranes assessed as stimulation of [35S]GTPgammaS binding incubated for 2 hrs by scintillation counting method. In kind it is functional, Membrane.
Conditions: not given
In the case of `CN(C(=O)CCc1ccccc1)[C@@H]1C[C@]23CCN(CC4CC4)[C@H](Cc4ccc(O)cc42)[C@]32CC[C@@H]1O2`, the EC50 turned out to be 21.4 nM.

For the compound `O=C(N[C@@H]1C[C@]23CCN(CC4CC4)[C@H](Cc4ccc(O)cc42)[C@]32CC[C@@H]1O2)c1ccccc1`, the EC50 came out at 2.86 nM.

For `CN(C(=O)c1ccccc1)[C@@H]1C[C@]23CCN(CC4CC4)[C@H](Cc4ccc(O)cc42)[C@]32CC[C@@H]1O2`, the EC50 amounted to 0.171 nM.

As for `O=C(N[C@H]1C[C@]23CCN(CC4CC4)[C@H](Cc4ccc(O)cc42)[C@]32CC[C@@H]1O2)c1ccccc1`, the EC50 came out at 51.9 nM.

A further series has as its target T2, Delta-type opioid receptor. As to the kind of experiment: Agonist activity at human delta opioid receptor expressed in CHO cell membranes assessed as stimulation of [35S]GTPgammaS binding incubated for 2 hrs by scintillation counting method relative to SNC80. It is filed as functional. The settings on record: Membrane.
Take `CN(C(=O)c1ccccc1)[C@@H]1C[C@]23CCN(CC4CC4)[C@H](Cc4ccc(O)cc42)[C@]32CC[C@@H]1O2`: the Emax amounted to 27.7%.

Staying with this series, now noted: Membrane, filed as agonist.
For the compound `CN(C(=O)CCc1ccccc1)[C@@H]1C[C@]23CCN(CC4CC4)[C@H](Cc4ccc(O)cc42)[C@]32CC[C@@H]1O2`, the maximal response (Emax) came to 85.2%.

`O=C(N[C@@H]1C[C@]23CCN(CC4CC4)[C@H](Cc4ccc(O)cc42)[C@]32CC[C@@H]1O2)c1ccccc1`: the Emax is 106%.

In the case of `O=C(N[C@H]1C[C@]23CCN(CC4CC4)[C@H](Cc4ccc(O)cc42)[C@]32CC[C@@H]1O2)c1ccccc1`, the maximal response (Emax) amounted to 97.4%.

In another series the target is T3, Kappa-type opioid receptor. As to the kind of experiment: Agonist activity at human kappa opioid receptor expressed in CHO cell membranes assessed as stimulation of [35S]GTPgammaS binding incubated for 2 hrs by scintillation counting method. In kind it is functional, Membrane.
Conditions: not given
Turning to `CN(C(=O)CCc1ccccc1)[C@@H]1C[C@]23CCN(CC4CC4)[C@H](Cc4ccc(O)cc42)[C@]32CC[C@@H]1O2`, the EC50 came out at 9.95 nM.

For the compound `O=C(N[C@@H]1C[C@]23CCN(CC4CC4)[C@H](Cc4ccc(O)cc42)[C@]32CC[C@@H]1O2)c1ccccc1`, the EC50 stood at 1.82 nM.

Take `CN(C(=O)c1ccccc1)[C@@H]1C[C@]23CCN(CC4CC4)[C@H](Cc4ccc(O)cc42)[C@]32CC[C@@H]1O2`: the EC50 amounted to 1.59 nM.

On to `O=C(N[C@H]1C[C@]23CCN(CC4CC4)[C@H](Cc4ccc(O)cc42)[C@]32CC[C@@H]1O2)c1ccccc1`, for which the EC50 came to 32.4 nM.

A further series concerns the target T3, Kappa-type opioid receptor. As to the kind of experiment: Agonist activity at human kappa opioid receptor expressed in CHO cell membranes assessed as stimulation of [35S]GTPgammaS binding incubated for 2 hrs by scintillation counting method relative to U-69593. In kind it is functional. The note with it: Membrane.
Regarding `CN(C(=O)c1ccccc1)[C@@H]1C[C@]23CCN(CC4CC4)[C@H](Cc4ccc(O)cc42)[C@]32CC[C@@H]1O2`, the Emax amounted to 34.6%.

For the compound `O=C(N[C@H]1C[C@]23CCN(CC4CC4)[C@H](Cc4ccc(O)cc42)[C@]32CC[C@@H]1O2)c1ccccc1`, the Emax was 23.7%.

Staying with this series, now noted: Membrane, filed as partial agonist.
Consider `CN(C(=O)CCc1ccccc1)[C@@H]1C[C@]23CCN(CC4CC4)[C@H](Cc4ccc(O)cc42)[C@]32CC[C@@H]1O2`, for which the Emax worked out at 58.5%.

Consider `O=C(N[C@@H]1C[C@]23CCN(CC4CC4)[C@H](Cc4ccc(O)cc42)[C@]32CC[C@@H]1O2)c1ccccc1`, for which the maximal response (Emax) worked out at 87.7%.

Another series deals with T1, Mu-type opioid receptor. Briefly: Agonist activity at human mu opioid receptor expressed in CHO cell membranes assessed as stimulation of [35S]GTPgammaS binding at 10 uM incubated for 2 hrs by scintillation counting method relative to DAMGO. Set-up: species or system Membrane.
Conditions: not given
For the compound `O=C(N[C@H]1C[C@]23CCN(CC4CC4)[C@H](Cc4ccc(O)cc42)[C@]32CC[C@@H]1O2)c1ccccc1`, the Activity is 10.2%.
